Measured values published in article PMC9486129, “An evolutionary divergent thermodynamic brake in ZAP-70 fine-tunes the kinetic proofreading in T cells” (The Journal of Biological Chemistry, 2022).
Residue numbers refer to the chain shown, from its start. “And” between values parts separate entries of the source, which are not always exact repeats. Identical values can stand only once. Where a SMILES comes first, the peptide text is derived from it. [ ]: non-standard residue; d: D form. pY = N[C@@H](Cc1ccc(OP(=O)(O)O)cc1)C(=O)O

How the values were obtained:
Syk tSH2 domain = molecular target: T1, Syk tSH2 domain (Homo sapiens, UniProt P43405); assay: Steady-state intrinsic tryptophan fluorescence titration, Syk tSH2; format: binding; conditions: 25 °C, 0.5 μM tSH2, SD from three independent experiments
T1 construct: Syk tSH2 (7–263), cloned in pGEX6P1 vector; GST (N, cleaved yes); host or cells: E. coli BL21(DE3)
Experimental: (§1) The dissociation constant ( Kd ) was derived by fitting the normalized intensity (F0/F) versus ligand concentration using the following equation: F0/F=Bmax∗X^nH/(Kd^nH+X^nH) where F0 and F is fluorescence intensity in absence and presence of ligand, respectively. Bmax is the maximum binding, and nH is the Hill coefficient. The Hill coefficient (nH) was also determined from Hill plot ([70]).

tSH2R192A of ZAP-70 = molecular target: T2, tSH2R192A of ZAP-70 (Homo sapiens, UniProt P43403); assay: Isothermal titration calorimetry, ZAP-70 tSH2R192A (C-SH2 mutant)
T2 sequence (P43403 1-256 R190A): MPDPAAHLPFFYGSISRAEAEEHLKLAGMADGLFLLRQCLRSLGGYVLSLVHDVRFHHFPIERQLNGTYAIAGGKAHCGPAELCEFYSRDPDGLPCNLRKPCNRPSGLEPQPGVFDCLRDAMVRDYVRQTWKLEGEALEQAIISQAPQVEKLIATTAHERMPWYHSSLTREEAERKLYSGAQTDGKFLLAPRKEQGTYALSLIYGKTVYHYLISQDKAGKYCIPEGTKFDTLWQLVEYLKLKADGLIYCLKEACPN
Experimental: We probed Kd1 and Kd1∗ by fluorescence spectroscopy and Kd2 and Kd1∗ by ITC. To probe the Kd2 , we used ^tSH2R190A mutant that impairs phosphotyrosine binding to C-SH2 PBP (Figs. 1E and S1F).
ITC studies were carried out using Malvern-PEAQ_ITC at 20 °C. […] The Kd , ΔH, and ΔS were fitted into two-site sequential fit using ORIGIN as described previously ([33]). In the ITC experiments with C-SH2 domain mutant (R190A), the protein was buffer exchanged to 20 mM Hepes pH 8.2, 150 mM NaCl, and 5 mM β-mercaptoethanol.

tSH2 domain of ZAP-70 = molecular target: T3, tSH2 domain of ZAP-70 (Homo sapiens, UniProt P43403); assay: Steady-state intrinsic tryptophan fluorescence titration, ZAP-70 tSH2 wild type; format: binding
T3 construct: ZAP-70 tSH2 WT (1–256), cloned in pSKB2 vector; made in house; host or cells: E. coli BL21(DE3)
T3 sequence (P43403 1-256): T2 sequence (P43403 1-256 R190A) with A190R
Experimental: as §1

ZAP-70 tSH2 domain = molecular target: T4, ZAP-70 tSH2 domain (Homo sapiens, UniProt P43403); assay: Stopped-flow fluorescence binding kinetics, ZAP-70 tSH2 wild type; conditions: 10 °C
T4 construct: ZAP-70 tSH2 WT (1–256), cloned in pSKB2 vector; made in house; host or cells: E. coli BL21(DE3)
T4 sequence (P43403 1-256): T2 sequence (P43403 1-256 R190A) with A190R
Experimental: We observed that the fluorescence intensity decay in two steps, fast (<200 ms) and slow (>20 s) (Fig. 3A). […] All kinetic data were first normalized against the highest intensity and then subtracted by the blank (protein only sample) (Fig. 3, A and B) and fitted to a one-site association kinetics (Table 1).
The change in fluorescence intensity was measured at λex 290 nm, λem 350 nm, and 10 °C ([71]). […] Each transient was measured over 200s (for slow kinetics) or 1s (for fast kinetics), interval with 1500 and 101 time points, respectively. For each sample, a blank dataset was recorded by measuring the change in intensity for protein only. Each data set was normalized against the maximum intensity observed for the respective sample at time 0. The normalized sample was further corrected by blank subtraction. The observed rate (kobs) was derived by fitting the change in intensity with respect to time by fitting to association kinetics equation implemented in Prism. Y=Y0+(Ymax−Y0)(1−e^[…]) where, Y0 is the intensity at time 0, Ymax is the maximum intensity, k is rate constant.

Kd (Syk tSH2 domain)	Kd (tSH2R192A of ZAP-70)	Subsequent (second) binding step (tSH2 domain of ZAP-70)	kobsfast (ZAP-70 tSH2 domain; 100 nM tSH2, 30 μM peptide, 20 mM Tris pH 8.0, 150 mM NaCl, 5% glycerol, 5 mM β-mercaptoethanol, λex 290/λem 350 nm, 1 s transients, SD from three independent experiments)	Slow binding step (in words) (ZAP-70 tSH2 domain; wild-type tSH2)	SMILES
0.0698 µM and 0.065 to 0.07 µM	12 ± 0.9 µM	–	–	–	CC(C)C[C@H](NC(=O)CNC(=O)[C@@H](N)CC(=O)O)C(=O)N[C@@H](Cc1ccc(OP(=O)(O)O)cc1)C(=O)N[C@@H](CCC(N)=O)C(=O)NCC(=O)N[C@@H](CC(C)C)C(=O)N[C@@H](CO)C(=O)N[C@H](C(=O)N[C@@H](C)C(=O)N[C@H](C(=O)N[C@@H](CCCCN)C(=O)N[C@@H](CC(=O)O)C(=O)N[C@H](C(=O)N[C@@H](Cc1ccc(OP(=O)(O)O)cc1)C(=O)N[C@@H](CC(=O)O)C(=O)N[C@@H](C)C(=O)N[C@@H](CC(C)C)C(=O)N[C@@H](Cc1c[nH]cn1)C(=O)O)[C@@H](C)O)[C@@H](C)O)[C@@H](C)O [ITAM-Y2P-ζ3] (H-DGL[pY]QGLSTATKDT[pY]DALH-OH)
–	9.8 ± 0.75 µM	–	–	–	CC(C)C[C@H](NC(=O)[C@H](CC(N)=O)NC(=O)[C@H](CC(C)C)NC(=O)[C@H](CCC(=O)O)NC(=O)[C@H](CC(N)=O)NC(=O)[C@H](Cc1ccc(OP(=O)(O)O)cc1)NC(=O)[C@H](CC(C)C)NC(=O)[C@H](CCC(N)=O)NC(=O)[C@@H](N)CC(N)=O)C(=O)NCC(=O)N[C@@H](CCCNC(=N)N)C(=O)N[C@@H](CCCNC(=N)N)C(=O)N[C@@H](C)C(=O)N[C@@H](CCC(=O)O)C(=O)N[C@@H](Cc1ccc(OP(=O)(O)O)cc1)C(=O)N[C@@H](CC(=O)O)C(=O)N[C@H](C(=O)N[C@@H](CC(C)C)C(=O)N[C@@H](CC(=O)O)C(=O)O)C(C)C [ITAM-Y2P-ζ1 E13A]
–	–	no subsequent binding was observed	28.60 ± 5.84 s⁻¹	no detectable slow binding	CC(C)C[C@H](NC(=O)[C@H](CC(N)=O)NC(=O)[C@H](CC(C)C)NC(=O)[C@H](CCC(=O)O)NC(=O)[C@H](CC(N)=O)NC(=O)[C@H](Cc1ccc(OP(=O)(O)O)cc1)NC(=O)[C@H](CC(C)C)NC(=O)[C@H](CCC(N)=O)NC(=O)[C@@H](N)CC(N)=O)C(=O)NCC(=O)N[C@@H](CCCNC(=N)N)C(=O)N[C@@H](CCCNC(=N)N)C(=O)N[C@@H](CCC(=O)O)C(=O)N[C@@H](CCC(=O)O)C(=O)N[C@@H](Cc1ccc(O)cc1)C(=O)N[C@@H](CC(=O)O)C(=O)N[C@H](C(=O)N[C@@H](CC(C)C)C(=O)N[C@@H](CC(=O)O)C(=O)O)C(C)C [ITAM-YP-ζ1]
